Assays:
Assay type in all cases: cell-based, P. aeruginosa
MvfR regulon [1] = assay: LC/MS quantification of HAQs and related molecules in bacterial culture supernatants; settings: Pseudomonas aeruginosa
MvfR regulon [2] = assay: pqsA gene expression (pqsA-GFP reporter); settings: for pqsA @50 uM (%): compound at 50 uM; for activity at 50 µM / activity at 10 µM: Pseudomonas aeruginosa; for activity at 50 µM: read-out: pqsA @50 uM (%), compound at 50 uM; for activity at 10 µM: read-out: pqsA @10 uM (%), compound at 10 uM
Procedure: Experiments were performed to identify compounds that inhibit the MvfR regulon without altering growth, ultimately attenuating P. aeruginosa infection. MvfR is a LysR-type transcriptional regulator that directs HAQs synthesis, including that of its ligands, 4-hydroxy-2-heptylquinoline (HHQ) and 3,4-dihydroxy-2-heptylquinoline (PQS).
MvfR promotes the production of HAQs by binding to and activating the pqs operon, which encodes enzymes for HAQ synthesis. Anthranilic acid (AA), derived from the phnAB, kynABU, and trpEG pathways, is the precursor for HAQs. pqsA encodes an anthranilate-coenzyme A ligase, which activates anthranilic acid and catalyzes the first committed step to HAQ production. The exact roles of PqsB and PqsC are unknown, though both show homology to acyl-carrier-proteins and both are required for HHQ and PQS production. […] The final gene of the operon, pqsE encodes for a putative hydrolase, and while the protein is not required for the synthesis of HAQs, it is necessary for pyocyanin production.
Nanomolar levels of most of these MvfR antagonists impeded the activity of MvfR and in consequence the MvfR virulence regulated ACRP functions, including: (1) the production of the important pro-acute P. aeruginosa virulence factor pyocyanin (see e.g., FIG. 9A) the efficacy of two of these potent inhibitors, D57 and D88, was also confirmed by testing many different MDR P. aeruginosa clinical isolates (see e.g., FIG. 11A-11B), providing further confidence of their inhibitory potency; (2) the expression of the genes that encode the enzymes catalyzing the synthesis of both pro-acute and pro-persistence MvfR-regulated virulence molecules, 4-hydroxyl-2-alkyl-quinolines (HAQs) and 2-aminoacetophenon (2-AA), as assessed by pqsAGFP reporter gene expression (see e.g., FIG. 9B) and HAQ production showing the levels of MvfR inducers/ligands HHQ and PQS as well as of the molecules critical for biofilm and Antibiotic tolerant/persiters cells formation HQNO and 2-AA (see e.g., FIG. 9C); (3) AT/P cell formation (see e.g., FIGS. 11A, 12A); (4) biofilm formation (see e.g., FIG. 12B); and (5) biofilm dispersal of preformed biofilm by potentiating antibiotic action (see e.g., FIG. 11B).

MvfR regulon [3] = assay: Quantification of pyocyanin (OD520nm of chloroform-extracted cultures); settings: for pyocyanin @50 uM (%): compound at 50 uM; for activity at 50 µM / activity at 1 µM / activity at 10 µM / IC50: Pseudomonas aeruginosa; for activity at 50 µM: read-out: pyocyanin @50 uM (%), compound at 50 uM; for activity at 1 µM: read-out: pyocyanin @1 uM (%), compound at 1 uM; for activity at 10 µM: read-out: pyocyanin @10 uM (%), compound at 10 uM; for IC50: read-out: IC50 pyocyanin (μM)

| SMILES | activity at 50 µM (MvfR regulon [2]) | activity at 50 µM (MvfR regulon [3]) | activity at 10 µM (MvfR regulon [2]) | activity at 1 µM (MvfR regulon [3]) | activity at 10 µM (MvfR regulon [3]) | also measured |
| --- | --- | --- | --- | --- | --- | --- |
| Cc1cc(F)ccc1NCC(=O)Nc1cccc(C#N)c1 [Compound 2] | – | – | – | – | – | activity at 50 µM (MvfR regulon [1]; read-out: 2-AA @50 uM): 122%; activity at 50 µM (MvfR regulon [1]; read-out: HHQ @50 uM (%)): 100%; activity at 50 µM (MvfR regulon [1]; read-out: HQNO @50 uM (%)): 101%; activity at 50 µM (MvfR regulon [1]; read-out: PQS @50 uM (%)): 109%; pqsA @50 uM (%) (MvfR regulon [2]; listed as G1): 84.13%; pyocyanin @50 uM (%) (MvfR regulon [3]; listed as G1): 102.49% |
| Cc1cc(F)ccc1NCC(=O)Nc1ccc(C(F)(F)F)cc1 [Compound 3] | 46% | 60.9% | – | – | – | activity at 50 µM (MvfR regulon [1]; read-out: 2-AA @50 uM): 68.3%; activity at 50 µM (MvfR regulon [1]; read-out: DHQ @50 uM): 81.5%; activity at 50 µM (MvfR regulon [1]; read-out: HHQ @50 uM (%)): 110%; activity at 50 µM (MvfR regulon [1]; read-out: HQNO @50 uM (%)): 86.5%; activity at 50 µM (MvfR regulon [1]; read-out: PQS @50 uM (%)): 93.4% |
| Cc1cc(F)ccc1NCC(=O)Nc1ccccc1C#N [Compound 4] | 95.9% | 113% | – | – | – | activity at 50 µM (MvfR regulon [1]; read-out: 2-AA @50 uM): 123%; activity at 50 µM (MvfR regulon [1]; read-out: HHQ @50 uM (%)): 99.2%; activity at 50 µM (MvfR regulon [1]; read-out: HQNO @50 uM (%)): 111%; activity at 50 µM (MvfR regulon [1]; read-out: PQS @50 uM (%)): 122% |
| Cc1cc(F)ccc1NCC(=O)Nc1ccc(F)cc1 [Compound 5] | 92% | 83.6% | – | – | – | activity at 50 µM (MvfR regulon [1]; read-out: 2-AA @50 uM): 80.4%; activity at 50 µM (MvfR regulon [1]; read-out: DHQ @50 uM): 84.7%; activity at 50 µM (MvfR regulon [1]; read-out: HHQ @50 uM (%)): 94.6%; activity at 50 µM (MvfR regulon [1]; read-out: HQNO @50 uM (%)): 92.3%; activity at 50 µM (MvfR regulon [1]; read-out: PQS @50 uM (%)): 88.5% |
| Cc1cc(F)ccc1OCC(=O)Nc1ccc(C#N)cc1 [Compound 6] | 98% | 98.4% | – | – | – | activity at 50 µM (MvfR regulon [1]; read-out: 2-AA @50 uM): 63.4%; activity at 50 µM (MvfR regulon [1]; read-out: DHQ @50 uM): 82.7%; activity at 50 µM (MvfR regulon [1]; read-out: HHQ @50 uM (%)): 114%; activity at 50 µM (MvfR regulon [1]; read-out: HQNO @50 uM (%)): 111%; activity at 50 µM (MvfR regulon [1]; read-out: PQS @50 uM (%)): 114% |
| Cc1cc(F)ccc1NC(C)C(=O)Nc1ccc(C#N)cc1 (stereo not drawn) [Compound 7] | 86.8% | 110% | – | – | – | activity at 50 µM (MvfR regulon [1]; read-out: 2-AA @50 uM): 152%; activity at 50 µM (MvfR regulon [1]; read-out: HHQ @50 uM (%)): 106%; activity at 50 µM (MvfR regulon [1]; read-out: HQNO @50 uM (%)): 131%; activity at 50 µM (MvfR regulon [1]; read-out: PQS @50 uM (%)): 115% |
| Cc1cc(F)ccc1OCC(=O)Nc1ccc(F)cc1 [Compound 8] | 78% | 91.1% | – | – | – | activity at 50 µM (MvfR regulon [1]; read-out: 2-AA @50 uM): 71.7%; activity at 50 µM (MvfR regulon [1]; read-out: DHQ @50 uM): 67.8%; activity at 50 µM (MvfR regulon [1]; read-out: HHQ @50 uM (%)): 83.5%; activity at 50 µM (MvfR regulon [1]; read-out: HQNO @50 uM (%)): 94%; activity at 50 µM (MvfR regulon [1]; read-out: PQS @50 uM (%)): 94.7% |
| N#Cc1ccc(NC(=O)CNc2ccc(F)cc2)cc1 [Compound 9] | 63.2% | 85.6% | – | – | – | activity at 50 µM (MvfR regulon [1]; read-out: 2-AA @50 uM): 112%; activity at 50 µM (MvfR regulon [1]; read-out: HHQ @50 uM (%)): 87.1%; activity at 50 µM (MvfR regulon [1]; read-out: HQNO @50 uM (%)): 108%; activity at 50 µM (MvfR regulon [1]; read-out: PQS @50 uM (%)): 124% |
| Cc1ccccc1NCC(=O)Nc1ccc(C#N)cc1 [Compound 10] | 92.9% | 94.3% | – | – | – | activity at 50 µM (MvfR regulon [1]; read-out: 2-AA @50 uM): 63.9%; activity at 50 µM (MvfR regulon [1]; read-out: DHQ @50 uM): 59.5%; activity at 50 µM (MvfR regulon [1]; read-out: HHQ @50 uM (%)): 76.4%; activity at 50 µM (MvfR regulon [1]; read-out: HQNO @50 uM (%)): 92.5%; activity at 50 µM (MvfR regulon [1]; read-out: PQS @50 uM (%)): 124% |
| N#Cc1ccc(NC(=O)CC(=O)Nc2ccc(F)cn2)cc1 [Compound 88] | – | 48.3% | 95.1% | 97% | 77.7% | – |
| CN(C(=O)CC(=O)Nc1ccc(C#N)cc1)c1ccc(C#N)cc1 [Compound 89] | – | 84.8% | 98.5% | 95.7% | 102% | – |
| N#Cc1ccc(NC(=O)CC(=O)Nc2cccc(C#N)c2)cc1 [Compound 90] | – | 49.4% | 97.2% | 91.8% | 88.5% | – |
| N#Cc1ccc(NC(=O)CC(=O)c2ccc(F)cc2)cc1 [Compound 91] | – | 77.1% | 87.4% | 99.2% | 98.3% | – |
| N#Cc1ccc(NC(=O)CC(=O)Nc2ccc(C#N)nc2)cc1 [Compound 92] | – | 6.8% | 25.4% | 64.5% | 13.9% | IC50 (MvfR regulon [3]): 1.61 µM |
| N#Cc1ccc(NC(=O)CC(=O)Nc2ccc(C#N)cn2)cc1 [Compound 93] | – | 14.3% | 61.3% | 79.6% | 53.5% | – |
| N#Cc1ccc(NC(=O)C2CCN(c3ccc(F)cc3)C2=O)cc1 (stereo not drawn) [Compound 94] | – | 95.2% | 109% | 94.6% | 94% | – |
| CC(C(=O)Nc1ccc(C#N)cc1)C(=O)Nc1ccc(C#N)cc1 [Compound 95] | – | 7% | 45.7% | 93.5% | 23.9% | IC50 (MvfR regulon [3]): 1.35 µM |

| SMILES | activity at 50 µM (MvfR regulon [2]) | activity at 50 µM (MvfR regulon [3]) | activity at 10 µM (MvfR regulon [2]) | activity at 1 µM (MvfR regulon [3]) | activity at 10 µM (MvfR regulon [3]) | also measured |
| --- | --- | --- | --- | --- | --- | --- |
| N#Cc1ccc(NC(=O)CS(=O)(=O)Nc2ccc(C#N)cc2)cc1 [Compound 96] | – | 111% | 118% | 97.3% | 109% | – |
| N#Cc1ccc(NC(=O)CC(=O)N2CCc3cc(C#N)ccc32)cc1 [Compound 97] | – | 82.3% | 99.7% | 99.9% | 74.5% | – |
| N#Cc1ccc(/C=C/C(=O)Nc2ccc(C#N)cc2)cc1 [Compound 98] | – | 114% | 114% | 94.5% | 108% | – |
| N#Cc1ccc(NC(=O)CC(=O)Cc2ccc(F)cc2)cc1 [Compound 99] | – | 102% | 96.3% | 92% | 115% | – |
| N#Cc1ccc(NC(=O)CC(=O)Nc2ccncc2)cc1 [Compound 100] | – | 81.9% | 88.9% | 66.3% | 101% | – |
| N#Cc1ccc(NC(=O)/C=C/C(=O)Nc2ccc(F)cc2)cc1 [Compound 101] | – | 87.8% | 96.3% | – | – | – |
| N#Cc1ccc(NC(=O)C2(C(=O)Nc3ccc(C#N)cc3)CC2)cc1 [Compound 102] | – | 96.8% | 93.4% | – | – | – |
| N#Cc1ccc(NC(=O)CC(O)Cc2ccc(F)cc2)cc1 (stereo not drawn) [Compound 104] | – | 95.3% | 97.3% | – | – | – |
| N#Cc1ccc2c(c1)OCCN2C(=O)CC(=O)Nc1ccc(Oc2ccccc2)cc1 [Compound 105] | – | 11.4% | 47.3% | 68% | 32% | IC50 (MvfR regulon [3]): 2.78 µM |
| N#Cc1ccc(NC(=O)CC(=O)Nc2ccc(C#N)nc2)cn1 [Compound 106] | 38.9% | 43.1% | 80% | 90% | 75.6% | – |
| N#Cc1ccc(NC(=O)CC(=O)Nc2ccc(Oc3ccccc3)cc2)c(N)c1 [Compound 107] | – | – | 2.1% | 75% | 12.1% | pqsA @50 uM (%) (MvfR regulon [2]; listed as D92): 1.40%; pyocyanin @50 uM (%) (MvfR regulon [3]; listed as D92): 3.51% |
| CC(F)(C(=O)Nc1ccc(C#N)cc1)C(=O)Nc1ccc(C#N)cc1 [Compound 109] | 84.9% | 51.5% | 87% | 98.6% | 78.2% | – |
| N#Cc1ccc(NC(=O)C(F)C(=O)Nc2ccc(C#N)cc2)cc1 [Compound 111] | 41.8% | 34% | 62.8% | 91.7% | 50.8% | – |
| N#Cc1ccc(NC(=O)C(F)(F)C(=O)Nc2ccc(C#N)cc2)cc1 [Compound 112] | 95.1% | 93.6% | 95.4% | 101% | 87.1% | – |
| O=C(CC(=O)Nc1ccc(C(F)(F)F)cc1)Nc1ccc(Oc2ccccc2)cc1 [Compound 113] | 28.8% | 42.1% | 37.2% | 68% | 60.9% | – |
| N#Cc1ccc(NC(=O)C(N)C(=O)Nc2ccc(C#N)cc2)cc1 [Compound 114] | 1.75% | 2.85% | 58.9% | 94.9% | 66.1% | – |

— patent US11731946B2, “Broad spectrum antivirulence, anti-persistence compounds” (priority 2017, dated 2023)
